The source of these data is patent publication US10702506B2, “Small molecule inhibitors of pendrin ion exchange and pharmaceutical compositions” (THE REGENTS OF THE UNIVERSITY OF CALIFORNIA, priority 2016, dated 2020).

In this experiment the target is T1, ENaC (Homo sapiens, UniProt P37088+P51168+P51170).
T1 construct: endogenous in cells; host or cells: IL-13-treated primary human bronchial epithelial (HBE) cell cultures
T1 sequence (P37088 1-669): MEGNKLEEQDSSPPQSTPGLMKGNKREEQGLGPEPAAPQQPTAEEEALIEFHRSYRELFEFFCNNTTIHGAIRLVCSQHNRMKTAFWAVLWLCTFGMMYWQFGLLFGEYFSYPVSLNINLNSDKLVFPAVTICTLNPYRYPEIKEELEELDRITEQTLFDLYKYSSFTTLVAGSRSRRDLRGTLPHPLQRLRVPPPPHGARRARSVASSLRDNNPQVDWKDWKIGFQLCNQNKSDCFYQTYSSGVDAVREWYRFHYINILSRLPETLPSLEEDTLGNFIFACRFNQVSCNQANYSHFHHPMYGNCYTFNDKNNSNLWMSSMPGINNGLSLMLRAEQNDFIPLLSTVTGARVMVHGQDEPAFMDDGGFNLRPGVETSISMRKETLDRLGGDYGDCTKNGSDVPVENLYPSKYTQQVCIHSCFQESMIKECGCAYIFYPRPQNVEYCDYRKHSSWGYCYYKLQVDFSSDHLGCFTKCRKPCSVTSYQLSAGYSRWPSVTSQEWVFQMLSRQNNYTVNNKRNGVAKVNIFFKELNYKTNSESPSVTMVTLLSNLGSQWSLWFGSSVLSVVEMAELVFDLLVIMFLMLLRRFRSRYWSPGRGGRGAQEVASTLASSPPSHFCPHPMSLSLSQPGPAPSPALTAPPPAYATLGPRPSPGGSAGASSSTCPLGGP
T1 sequence (P51168 1-640): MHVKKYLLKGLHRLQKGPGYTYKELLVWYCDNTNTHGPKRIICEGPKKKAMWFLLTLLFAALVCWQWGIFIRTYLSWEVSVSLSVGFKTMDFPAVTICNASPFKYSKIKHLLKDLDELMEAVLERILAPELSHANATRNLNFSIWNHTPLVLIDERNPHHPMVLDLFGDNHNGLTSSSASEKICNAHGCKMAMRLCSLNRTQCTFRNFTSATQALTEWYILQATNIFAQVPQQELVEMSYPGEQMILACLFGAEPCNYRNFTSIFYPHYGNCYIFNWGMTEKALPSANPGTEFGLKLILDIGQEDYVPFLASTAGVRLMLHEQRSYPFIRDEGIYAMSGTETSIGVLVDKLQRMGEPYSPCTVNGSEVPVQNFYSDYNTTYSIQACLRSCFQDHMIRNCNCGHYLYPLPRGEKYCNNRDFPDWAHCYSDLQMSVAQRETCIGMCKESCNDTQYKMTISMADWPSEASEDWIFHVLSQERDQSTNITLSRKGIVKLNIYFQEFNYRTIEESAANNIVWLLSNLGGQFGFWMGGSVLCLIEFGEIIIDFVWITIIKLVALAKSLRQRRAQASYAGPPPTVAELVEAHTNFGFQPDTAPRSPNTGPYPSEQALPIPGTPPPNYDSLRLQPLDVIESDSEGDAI
T1 sequence (P51170 1-649): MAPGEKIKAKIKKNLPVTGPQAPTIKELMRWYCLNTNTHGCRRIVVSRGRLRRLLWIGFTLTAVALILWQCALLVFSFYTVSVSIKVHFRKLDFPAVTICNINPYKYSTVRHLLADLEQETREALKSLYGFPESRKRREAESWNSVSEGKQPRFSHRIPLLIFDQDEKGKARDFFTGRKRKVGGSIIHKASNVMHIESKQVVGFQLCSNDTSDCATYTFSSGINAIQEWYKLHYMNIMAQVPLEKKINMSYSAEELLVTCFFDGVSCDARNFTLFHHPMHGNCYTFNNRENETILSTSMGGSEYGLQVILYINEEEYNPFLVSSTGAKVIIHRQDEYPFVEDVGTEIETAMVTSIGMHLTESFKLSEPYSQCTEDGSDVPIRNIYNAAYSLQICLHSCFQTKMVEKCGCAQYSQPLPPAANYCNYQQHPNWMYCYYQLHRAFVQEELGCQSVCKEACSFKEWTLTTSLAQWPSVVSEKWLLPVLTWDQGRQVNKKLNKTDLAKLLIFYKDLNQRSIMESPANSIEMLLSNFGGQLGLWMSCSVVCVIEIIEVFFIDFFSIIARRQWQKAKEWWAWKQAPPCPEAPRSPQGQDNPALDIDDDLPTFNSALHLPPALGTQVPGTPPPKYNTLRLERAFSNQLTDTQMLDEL
In words: Short-circuit current (Isc) analysis in IL-13-treated HBE cells, amiloride response. The format is cell-based. The settings on record: 25 μM, 30 min pre-treatment. As to the method: Further experiments were done with PDSinh-A01 because of its greater inhibition potency for Cl^−/HCO3^− exchange than PDSinh-C01. To investigate PDSinh-A01 specificity, the major ion transport pathways in HBE cells were studied by short-circuit current (Isc) analysis. Cells were treated with IL-13 to increase Ca^2+-activated Cl^− conductance (CaCC) activity. For Isc measurements, cells were sequentially treated with amiloride to inhibit the epithelial sodium channel (ENaC), forskolin to activate the cystic fibrosis transmembrane conductance regulator (CFTR), CFTRinh-172 to inhibit CFTR, and ATP to activate CaCC. In the absence of PDSinh-A01, ion channel modulators produced the anticipated changes in Isc (FIG. 4A).
IL-13-treated HBE cells were cultured on Snapwell clear permeable supports (12 mm diameter, 0.4 μm polyester membrane, Costar, Corning, Corning, N.Y.). Short-circuit current was measured using symmetrical HCO3^−-buffered solutions (in mM: 120 NaCl, 5 KCl, 1 MgCl2, 1 CaCl2, 5 Hepes, 25 NaHCO3; pH 7.4) as described, with ion transport modulators added to both apical and basolateral bathing solutions. Cells were equilibrated with 95% O2/5% CO2 and maintained at 37° C. during data acquisition. Statistical analysis was by Student's t-test.

Take `Cn1nc(COc2cccc(F)c2)c2c1CCN(C(=O)Nc1ccc(Cl)cc1)C2` [PDSinh-A01]: the “effect on ENaC activity (Isc response)” value is listed as “did not affect the activity”.
